System: Pseudomonas aeruginosa
Experiment: MIC (minimum inhibition concentration) against P. aeruginosa
Format: cell-based
Protocol: Compositions with clarithromycin were prepared by cold physical process. Powder clarithromycin compositions were dissolved in water to obtaining nanoemulsion. The control free clarithromycin was dissolved in 1% DMSO. Emulsion dried using lyophilization. Samples were tested in three independent experiments, with triplicate in each experiment. Particle size was measured using DLS. MIC data (minimum inhibition concentrations) of the formulated and free antibiotic were compared.

SMILES: CC[C@H]1OC(=O)[C@H](C)[C@@H](O[C@H]2C[C@@](C)(OC)[C@@H](O)[C@H](C)O2)[C@H](C)[C@@H](O[C@@H]2O[C@H](C)C[C@H](N(C)C)[C@H]2O)[C@](C)(OC)C[C@@H](C)C(=O)[C@H](C)[C@@H](O)[C@]1(C)O [Free clarithromycin, clarithromycin]
- MIC: 0.0625%

From US20230270678A1, “PHARMACEUTICAL COMPOSITIONS FOR IMPROVED DELIVERY OF THERAPEUTIC LIPOPHILIC ACTIVES” (KARNAK TECHNOLOGIES, LLC, priority 2020, published 2023)
